# Test results: patent US20230121313A1 (priority 2019, published 2023)
# System: subjects with MDD at imminent risk for suicide
# Assay: Beck Hopelessness Scale (BHS), Study […]2001
# Format: in vivo, human
# Details: 84 mg; for BHS total score change, Diff. of LS Means (minus Placebo): ANCOVA LOCF; for BHS total score, change from baseline, mean / BHS total score, change from baseline, median / BHS total score, mean / BHS total score, median: LOCF, N 35
# Description: • a. Changes from baseline to Day 2 and Day 25 for the MADRS total score • b. Changes from baseline to Day 1 4-hours postdose, Day 2 and Day 25 for the MADRS Suicide Item • c. Changes from baseline to Day 1 4-hours postdose, Day 2, and Day 25 for the clinical global judgment of suicide risk from the Suicide Ideation and Behavior Assessment Tool (SIBAT) • d. Sustained response (Onset of Clinical Response) defined as at least 50% reduction from baseline in MADRS total score with onset on Day 1 that is maintained through the end of the double-blind phase (Day 25) • e. Changes from baseline to Day 1 4-hours postdose, Day 2, and Day 25 for the Beck Scale for Suicidal Ideation (BSS) • f. Changes from baseline to Day 1 4-hours postdose and Day 25 for the Beck Hopelessness Scale
# The BHS is a self-reported measure to assess one's level of negative expectations or pessimism regarding the future. It consists of 20 true-false items that examine the respondent's attitude over the past week by either endorsing a pessimistic statement or denying an optimistic statement. For every statement, each response is assigned a score of 0 or 1. The total BHS score is a sum of item responses and ranges from 0 to 20, with a higher score representing a higher level of hopelessness.
smiles,measurement,setting,value
"CN[C@]1(c2ccccc2Cl)CCCCC1=O [esketamine, (S)-2-(2-chlorophenyl)-2-(methylamino)cyclohexanone]","BHS total score change, Diff. of LS Means (minus Placebo)",Day 1 (DB): 4 H,−1.5
same,"BHS total score, change from baseline, mean",Day 1 (DB): 4 H,−4.1
same,"BHS total score, change from baseline, median",Day 1 (DB): 4 H,−2.0
same,"BHS total score, mean",Day 1 (DB): 4 H,12.3
same,"BHS total score, median",Day 1 (DB): 4 H,14.0
same,"BHS total score change, Diff. of LS Means (minus Placebo)",End Point (DB),−2.3
same,"BHS total score, change from baseline, mean",End Point (DB),−10.3
same,"BHS total score, change from baseline, median",End Point (DB),−11.0
same,"BHS total score, mean",End Point (DB),6.2
same,"BHS total score, median",End Point (DB),4.0
